Assay results from patent US11759480B2, “Compositions and methods for CAR T cell therapy” (ENDOCYTE, INC., priority 2017, dated 2023).

How the values were obtained:
[1] = test system: MDA-MB-231; test: FITC-Folate dose escalation study in vivo (Example 20)
Procedure: To test whether gradual escalation of FITC-Folate dose can minimize CART cell mediated toxicity without compromising anti-tumor efficacy of CAR T cells, an experiment was designed. A dose of FITC-Folate (0.05 nmole/kg) was introduced first into NSG mice bearing MDA-MB-231 (tumor volume about 50-100 mm^3) along with anti-FITC CAR T cell injections (using about 15×10^6 cells). An additional two doses of about 0.05 nmole/kg FITC-Folate was administered to the mice. […] After a gradual increase of FITC-Folate dose, mice were treated with a 500 nmole/kg dose of FITC-Folate. […] General toxicity of each treatment group was monitored by measuring body weight loss. Tumor volume was measured to monitor anti-FITC CAR T cells' anti-tumor efficacy.

[2] = test system: anti-FITC CAR T cells with MDA-MB-231; test: In vitro interferon-γ assay (Example 22); assay type: cell-based, Human
Procedure: In order to study the relationship between bridge dose and anti-FITC CAR T cell activation, a folate receptor positive cancer cell line (MDA-MB-231) was seeded at a density of 10^4 cells/100 ul of media in each well of a 96-well plate and the cells were grown overnight. Anti-FITC CAR T cells (5×10^4 cells) were then added into each well containing cancer cells with various concentrations of Folate-FITC (from 0.001 nM to 100 μM) for 6-24 hours. After co-incubation, the plates containing anti-FITC CAR T cells and cancer cells were centrifuged for 10 min at 350×g to remove cells and cellular debris, and 50 ul of supernatant was assayed by ELISA (Human IFN-γ ELISA kit from Biolegend) to detect IFN-γ production by anti-FITC CAR T cells.

[3] = test system: MDA-MB-231; test: FITC-CAR-T/EC17 therapy, MDA-MB-231 model (Example 28); assay type: in vivo, NSG mice; conditions: 500 nmol/kg weekly, 5 million FITC-CAR-T
Procedure: (§1) To test whether FITC-CAR-T/EC17 therapy has anti-tumor activity in various FR+ tumor models, NSG mice were subcutaneously implanted with MDA-MB-231 (triple negative breast cancer cell line), OV90 (human ovarian cancer cell line), KB (human cervical adenocarcinoma cell line), SKOV-3 (human ovarian carcinoma cell line), or HEK293-FRa (HEK293 stably-transfected with human FRa). When tumor size reached […], one dose of EC17 at 500 nmol/kg of body weight was injected by tail vein followed with administering of 5 million FITC-CAR-T cells 4 hours later. 500 nmol/kg EC17 was dosed once every week after the initial EC17/CAR-T administration (about day 7), tumor size and body weights of mice were monitored three times per week. The EC17 dosing days were labeled as green dashed vertical lines in the graph. […] EC17 dose-dependent temporary body weight loss was also observed in all tumor bearing mice, indicating the activation of CAR-Ts is EC17-dependent in these mice.

[4] = test system: KB; test: FITC-CAR-T/EC17 therapy, KB model (Example 28); assay type: in vivo, NSG mice
Procedure: as §1

[5] = test system: HEK293-FRa; test: FITC-CAR-T/EC17 therapy, HEK293-FRa model (Example 28); assay type: in vivo, NSG mice; conditions: 500 nmol/kg weekly, 5 million FITC-CAR-T
Procedure: as §1

[6] = test system: FR+ MDA-MB-231 tumors; test: FITC-CAR-T toxicity and spleen size in MDA-MB-231 s.c. model (Example 37); assay type: in vivo, mice
Procedure: The evaluation of FITC-CAR-T proliferation and related toxicity in both naïve mice and mice bearing FR+ tumor xenografts was tested. To evaluate whether FITC-CAR-T proliferation in vivo is dependent on the co-existence of the bridge (e.g. EC17) and the tumor antigen (e.g. folate receptor), FITC-CAR-T proliferation in vivo was compared in naïve mice and mice bearing FR+ tumor xenografts, either with or without EC17. 5-8 million CAR-T cells (as indicated in FIGS. 42 and 43) were administered (i.v.) into naïve mice without tumors and mice bearing FR+ tumor xenografts (80-200 mm3). 500 nmol/kg EC17 was dosed 4 hours before and three times per week post CAR-T administration, if desired. Mice were monitored for body weight changes and CAR-T cell count in blood circulation; some mice were also euthanized weekly to evaluate organs. […] CAR-T cell count in blood samples was also compared to evaluate CAR-T proliferation. […] Since the enlargement of spleen size is another indicator for CAR-T proliferation in vivo, spleen size was also measured as shown in FIG. 43B.
For FIG. 42, the MDA-MB-231 s.c. model was used. For FIG. 43A, the HEK-FRa s.c. xenograft model was used. For FIG. 43B, the MDA-MB-231 s.c. model was used.

[7] = test system: MDA-MB-231; test: CAR-T and EC17 therapy-related toxicity versus tumor size (Example 46); assay type: in vivo, NSG mice
Procedure: To explore whether CAR-T therapy related toxicity is dependent on tumor load, NSG mice were s.c. implanted with MDA-MB-231. Ten mice with different tumor sizes ranging between 150-900 mm^3 were selected for this study. For the CAR-T cells, 10.5 million GFP+FITC-CAR-T cells were i.v. injected followed by 500 nmol/kg EC17 administration 48 hours later (FIG. 71A). Body weights of mice were compared between before CAR-T injection and 18 hours post EC17 administration. […] With higher tumor burden, mice lost more body weight after CAR-T and EC17 treatment. […] Plasma samples were separated immediately and stored at −20° C. until the analysis of cytokine levels using a human cytokine detection kit (Biolegend). […] With higher tumor burden, more IL-6 was produced after CAR-T and EC17 treatment. IL-6 has been widely reported to be the predicting biomarker for severe cytokine release syndrome in human patients with liquid tumors when they are treated with conventional CAR-T therapy.

[8] = test system: HOS-FRα; test: EC17-controlled anti-FITC CAR T-cell therapy in osteosarcoma model (Example 47); assay type: in vivo, NSG mice
Description: HOS-FRα cells were implanted subcutaneously with 5×10^5 per animal in 6 animals.
[…] One animal in the EC17-treated group received two more doses of EC17 at 50 and 100 nmol/kg on Days 40 and 42. All EC17 doses were given towards the end of the day (˜3-4 PM) to allow cytokine release syndrome (CRS) to develop overnight. Sodium fluorescein rescue was done as needed at 0.6 μmol/kg. Only the last EC17-dosed animal received sodium fluorescein on day 47.

[9] = test system: MDA-MB-231 tumors; conditions: mouse, in vivo
Procedure: (§2) To evaluate whether mice with FITC-CAR-T therapy related sCRS can be rescued by using competitors which may displace EC17 from either FITC-CAR-T or FR+ tumor cells, 49 NSG mice bearing MDA-MB-231 tumors (150-250 mm3) were administered with excess FITC-CAR-T cells (8 million), 36 of them were then dosed with 500 nmol/kg EC17 48 hours post CAR-T administration, 6 of them were not dosed with EC17 and were used as “No EC17” control, and 7 of them were dosed with 260 umol/kg sodium fluorescein (no EC17 but Fluorescein) to test its toxicity. […] Each group was i.v. injected with 10 umol/kg of Leucovorin, or 10 umol/kg folic acid, or 260 umol/kg sodium fluorescein, or nothing as an un-rescued control. […] Mouse body weight changes were also monitored as the indication of toxicity. […] To evaluate whether the rescue injections affect the anti-tumor activity of FITC-CAR-T cells, these mice were dosed with 500 nmol/kg EC17 twice per week (days 9, 11, 15, 18, 22, 25, etc.) and the tumor size was monitored.

[10] = test system: MDA-MB-231 tumors; test: Comparison of three rescue reagents (Example 32)
Procedure: as §2

SMILES: Nc1nc2ncc(CNc3ccc(C(=O)NC(CCC(=O)NCCNC(=S)Nc4ccc(-c5c6ccc(=O)cc-6oc6cc(O)ccc56)c(C(=O)O)c4)C(=O)O)cc3)nc2c(=O)[nH]1 (centres unmarked) [EC17, FITC-Folate]
- effect on CAR T cells' anti-tumor efficacy ([1]; gradual escalation): did not negatively affect
- toxicity ([1]; gradual escalation 0.05 to 500 nmole/kg, 15×10^6 CAR T cells): no serious toxicity
- optimal bridge dose (highest IFN-γ level) ([2]; 0.001 nM to 100 μM, 6-24 hours): 10 nM
- IFN-γ production ([2]; 10 μM and 100 μM): not detected
- cures [3]: 100%
- tumor response ([4]; 500 nmol/kg weekly, 5 million FITC-CAR-T): stable disease
- fraction of mice with sCRS ([4]; day 23): ⅔
- fraction of mice with sCRS ([4]; day 37): ⅓
- tumor response [5]: progressive disease
- spleen size ([6]; 500 nmol/kg three times per week): enlarged spleens
- body weight ([6]; EC17 three times per week): body weight loss in the first 10 days
- cytokine release syndrome grade ([7]; 18 hours after 500 nmol/kg, 10.5 million CAR-T): 2 grade
- body weight changes ([7]; tumors 150-900 mm^3): tumor size dependent
- production of IL-6 ([7]; tumors 150-900 mm^3): tumor size dependent
- tumor volume ([8]; 500 nmol/kg SIW, 10.5 million CAR T-cells): started to shrink on Days 28 and 33
- CRS ([8]; once tumors reached >200 mm^3): CRS was severe

SMILES: O=C([O-])c1ccccc1-c1c2ccc(=O)cc-2oc2cc([O-])ccc12.[Na+].[Na+] [sodium fluorescein]
- condition of mice (toxicity test) [9]: healthy
- body weight loss compared to other rescue groups ([10]; 260 umol/kg): least body weight loss
- order of sCRS severity (from worst to least) ([10]; 10 hours after rescue, Leucovorin 10, folic acid 10, sodium fluorescein 260 umol/kg): no rescue group>leucovorin rescue group>folic acid rescue group>sodium fluorescein rescue group>no EC17 group
- mice with a tiny tumor left ([10]; day 36 post CAR T injection): 2 out of 9
